Experiments:
A673 cells [1] = experiment: Cellular lactate production assay in A673 cells; type: cell-based, human; conditions: for IC50: Homo sapiens, A673, 0.5 h, read-out: A673 cells lactate inh. IC50
A673 cells [2] = experiment: Cytotoxicity assay in A673 cells; type: cell-based, human; conditions: for IC50: Homo sapiens, A673, 48 h, read-out: A673 cells Cytotox. IC50
LDHA = LDHA (Homo sapiens, UniProt P00338); experiment: Biochemical LDHA inhibition assay
MiaPaCa-2 cells [3] = experiment: Cellular lactate production assay in MiaPaCa-2 cells; type: cell-based; conditions: Homo sapiens, MIA PaCa-2, 0.5 h, read-out: MiaPaCa-2 cells lactate inh. IC50
MiaPaCa-2 cells [4] = experiment: Cytotoxicity assay in MiaPaCa-2 cells; type: cell-based; conditions: Homo sapiens, MIA PaCa-2, 48 h, read-out: MiaPaCa-2 cells Cytotox. IC50
[5] = target: LDHA with C-terminal HiBiT fusion tag (Homo sapiens, UniProt P00338); experiment: SplitLuc CETSA; type: cell-based
[6] = Mouse pharmacokinetic studies; type: in vivo, CD1 mice; conditions: male, CD1, mouse, plasma, iv, 10 mg/kg
[7] = tested on: tumor LDH activity (A673 flank xenograft); experiment: In vivo LDHA activity in A673 xenograft tumor mouse model; conditions: single IV 50 mg/kg, A673 xenograft mice
[8] = both cell lines (A673 and MiaPaCa-2)

Row | Structure (SMILES) | IC50 (LDHA) [µM] | IC50 (A673 cells [1]) [µM] | IC50 (A673 cells [2]) [µM] | IC50 (MiaPaCa-2 cells [3]) [µM] | IC50 [5] [µM] | further results
1 | C#Cc1cc(-c2nn(-c3nc(C(=O)O)cs3)c(CC3CC3)c2Cc2ccc(S(N)(=O)=O)c(F)c2)ccc1F [Compound 11, 2-(5-(Cyclopropylmethyl)-3-(3-ethynyl-4-fluorophenyl)-4-(3-fluoro-4-sulfamoylbenzyl)-1H-pyrazol-1-yl)thiazole-4-carboxylic Acid] | – | – | – | – | – | loss in potency toward lactate output relative to 10 (A673 cells [1]; [8]): < 2 fold; loss in potency in cytotoxicity relative to 10 (A673 cells [2]; [8]): < 3 fold
2 | NS(=O)(=O)c1ccc(Cc2c(-c3ccc(F)c(C#CC4(F)CCCC4)c3)nn(-c3nc(C(=O)O)cs3)c2CC2CC2)cc1F [Compound 24, 2-(5-(Cyclopropylmethyl)-3-(4-fluoro-3-((1-fluorocyclopentyl)-ethynyl)phenyl)-4-(3-fluoro-4-sulfamoylbenzyl)-1H-pyrazol-1-yl)-thiazole-4-carboxylic Acid] | 0.033 | 0.45 | 0.689 | 0.454 | 0.095 | IC50 (MiaPaCa-2 cells [4]): 0.593 µM
3 | NS(=O)(=O)c1ccc(Cc2c(-c3ccc(F)c(C#CC4(O)CCCC4)c3)nn(-c3nc(C(=O)O)cs3)c2CC2CC2)cc1F [Compound 25, 2-(5-(Cyclopropylmethyl)-3-(4-fluoro-3-((1-hydroxycyclopentyl)-ethynyl)phenyl)-4-(3-fluoro-4-sulfamoylbenzyl)-1H-pyrazol-1-yl)-thiazole-4-carboxylic Acid] | 0.007 | 1.93 | 2.19 | 1.48 | 0.15 | IC50 (MiaPaCa-2 cells [4]): 2.18 µM
4 | NS(=O)(=O)c1ccc(Cc2c(-c3ccc(F)c(C#CC4(F)COC4)c3)nn(-c3nc(C(=O)O)cs3)c2CC2CC2)cc1F [Compound 27, 2-(5-(Cyclopropylmethyl)-3-(4-fluoro-3-((3-fluorooxetan-3-yl)-ethynyl)phenyl)-4-(3-fluoro-4-sulfamoylbenzyl)-1H-pyrazol-1-yl)-thiazole-4-carboxylic Acid] | 0.007 | 1.32 | 2.65 | 1.05 | 0.126 | IC50 (MiaPaCa-2 cells [4]): 2.26 µM
5 | NS(=O)(=O)c1ccc(Cc2c(-c3ccc(F)c(C#CC4(O)COC4)c3)nn(-c3nc(C(=O)O)cs3)c2CC2CC2)cc1F [Compound 28, 2-(5-(Cyclopropylmethyl)-3-(4-fluoro-3-((3-hydroxyoxetan-3-yl)-ethynyl)phenyl)-4-(3-fluoro-4-sulfamoylbenzyl)-1H-pyrazol-1-yl)-thiazole-4-carboxylic Acid] | 0.006 | 12.2 | 3.59 | 4.87 | 1.5 | IC50 (MiaPaCa-2 cells [4]): 2.99 µM
6 | Cc1ccc(C#Cc2cc(-c3nn(-c4nc(C(=O)O)cs4)c(CC4CC4)c3Cc3ccc(S(N)(=O)=O)c(F)c3)ccc2F)o1 [Compound 44, 2-(5-(Cyclopropylmethyl)-3-(4-fluoro-3-((5-methylfuran-2-yl)-ethynyl)phenyl)-4-(3-fluoro-4-sulfamoylbenzyl)-1H-pyrazol-1-yl)-thiazole-4-carboxylic Acid] | – | – | – | – | – | clearance at 24 h [6]: 4.5 L/h/kg
7 | Cc1ncc(C#Cc2cc(-c3nn(-c4nc(C(=O)O)cs4)c(CC4CC4)c3Cc3ccc(S(N)(=O)=O)c(F)c3)ccc2F)s1 [Compound 46, 2-(5-(Cyclopropylmethyl)-3-(4-fluoro-3-((2-methylthiazol-5-yl)-ethynyl)phenyl)-4-(3-fluoro-4-sulfamoylbenzyl)-1H-pyrazol-1-yl)-thiazole-4-carboxylic Acid] | – | – | – | – | – | clearance at 24 h [6]: 5.82 L/h/kg
8 | NS(=O)(=O)c1ccc(Cc2c(-c3cccc(C#Cc4ccc(C5CC5)s4)c3)nn(-c3nc(C(=O)O)cs3)c2CC2CC2)cc1F [Compound 56, 2-(5-(Cyclopropylmethyl)-3-(3-((5-cyclopropylthiophen-2-yl)-ethynyl)phenyl)-4-(3-fluoro-4-sulfamoylbenzyl)-1H-pyrazol-1-yl)-thiazole-4-carboxylic Acid] | – | – | – | – | – | effect on LDH activity in tumors (in words) [7]: moderate inhibition; inhibition of tumor LDH activity at 6 h postdose ([7]; 6 h): failed to maintain significant inhibition
9 | Cc1ccc(C#Cc2cccc(-c3nn(-c4nc(C(=O)O)cs4)c(CC4CC4)c3Cc3ccc(S(N)(=O)=O)c(F)c3)c2)o1 [Compound 61, 2-(5-(Cyclopropylmethyl)-4-(3-fluoro-4-sulfamoylbenzyl)-3-(3-((5-methylfuran-2-yl)ethynyl)phenyl)-1H-pyrazol-1-yl)thiazole-4-carboxylic Acid] | – | – | – | – | – | clearance at 24 h [6]: 4.34 L/h/kg
10 | NS(=O)(=O)c1ccc(Cc2c(-c3ccc(F)c(/C=C/C4CCCC4)c3)nn(-c3nc(C(=O)O)cs3)c2CC2CC2)cc1F [Compound 69, (E)-2-(3-(3-(2-Cyclopentylvinyl)-4-fluorophenyl)-5-(cyclopropylmethyl)-4-(3-fluoro-4-sulfamoylbenzyl)-1H-pyrazol-1-yl)thiazole-4-carboxylic Acid] | – | – | – | – | – | clearance at 24 h [6]: 4.48 L/h/kg; effect on LDH activity in tumors (in words) [7]: less effects
11 | C/C=C/c1cc(-c2nn(-c3nc(C(=O)O)cs3)c(CC3CC3)c2Cc2ccc(S(N)(=O)=O)c(F)c2)ccc1F [Compound 71, (E)-2-(5-(Cyclopropylmethyl)-3-(4-fluoro-3-(prop-1-en-1-yl)phenyl)-4-(3-fluoro-4-sulfamoylbenzyl)-1H-pyrazol-1-yl)thiazole-4carboxylic Acid] | – | – | – | – | – | effect on LDH activity in tumors (in words) [7]: less effects
12 | C=C(c1cc(-c2nn(-c3nc(C(=O)O)cs3)c(CC3CC3)c2Cc2ccc(S(N)(=O)=O)c(F)c2)ccc1F)C(F)(F)F [Compound 73, 2-(5-(Cyclopropylmethyl)-3-(4-fluoro-3-(3,3,3-trifluoroprop-1-en-2-yl)phenyl)-4-(3-fluoro-4-sulfamoylbenzyl)-1H-pyrazol-1-yl)-thiazole-4-carboxylic Acid] | 0.039 | 0.713 | 16 | 0.972 | 0.398 | –
13 | Cc1ccc(C#Cc2cc(-c3nn(-c4nc(C(=O)O)cs4)c(CCC4CC4)c3Cc3ccc(S(N)(=O)=O)c(F)c3)ccc2F)s1 [Compound 74, 2-(5-(2-Cyclopropylethyl)-3-(4-fluoro-3-((5-methylthiophen-2yl)ethynyl)phenyl)-4-(3-fluoro-4-sulfamoylbenzyl)-1H-pyrazol-1-yl)thiazole-4-carboxylic Acid] | – | – | – | – | – | AUC(0-t) [6]: 6.65 µg·h/mL; clearance [6]: 4.48 L/h/kg; effect on LDH activity in tumors (in words) [7]: moderate inhibition
14 | Cc1ccc(C#Cc2cccc(-c3nn(-c4nc(C(=O)O)cs4)c(CCC4CC4)c3Cc3ccc(S(N)(=O)=O)c(F)c3)c2)s1 [Compound 75, 2-(5-(2-Cyclopropylethyl)-4-(3-fluoro-4-sulfamoylbenzyl)-3-(3-((5-methylthiophen-2-yl)ethynyl)phenyl)-1H-pyrazol-1-yl)thiazole-4-carboxylic Acid] | – | – | – | – | – | clearance at 24 h [6]: 1.12 L/h/kg
15 | Cc1cc(C#Cc2cccc(-c3nn(-c4nc(C(=O)O)cs4)c(CCC4CC4)c3Cc3ccc(S(N)(=O)=O)c(F)c3)c2)cs1 [Compound 77, 2-(5-(2-Cyclopropylethyl)-4-(3-fluoro-4-sulfamoylbenzyl)-3-(3-((5-methylthiophen-3-yl)ethynyl)phenyl)-1H-pyrazol-1-yl)thiazole-4-carboxylic Acid] | 0.16 | 0.434 | 0.197 | 0.254 | 0.142 | –
16 | Cc1ccc(C#Cc2cccc(-c3nn(-c4nc(C(=O)O)cs4)c(C(C)C4CC4)c3Cc3ccc(S(N)(=O)=O)c(F)c3)c2)s1 (stereo not shown) [Compound 84, 2-(5-(1-Cyclopropylethyl)-4-(3-fluoro-4-sulfamoylbenzyl)-3-(3-((5-methylthiophen-2-yl)ethynyl)phenyl)-1H-pyrazol-1-yl)thiazole-4-carboxylic Acid] | 0.874 | 0.685 | 0.968 | 1.03 | 0.708 | –
17 | Cc1ccc(C#Cc2cccc(-c3nn(-c4nc(C(=O)O)cs4)c(C(C)(C)C4CC4)c3Cc3ccc(S(N)(=O)=O)c(F)c3)c2)s1 [Compound 85, 2-(5-(2-Cyclopropylpropan-2-yl)-4-(3-fluoro-4-sulfamoylbenzyl)-3-(3-((5-methylthiophen-2-yl)ethynyl)phenyl)-1H-pyrazol-1-yl)-thiazole-4-carboxylic Acid] | 4.54 | 18.3 | 5.9 | 5.14 | 10.8 | –
18 | Cc1ccc(C#Cc2cccc(-c3nn(-c4nc(C(=O)O)cs4)c(CC4(C)CC4)c3Cc3ccc(S(N)(=O)=O)c(F)c3)c2)s1 [Compound 86, 2-(4-(3-Fluoro-4-sulfamoylbenzyl)-5-((1-methylcyclopropyl)-methyl)-3-(3-((5-methylthiophen-2-yl)ethynyl)phenyl)-1H-pyrazol-1-yl)thiazole-4-carboxylic Acid] | 0.307 | 0.346 | 0.59 | 0.409 | 0.251 | –
19 | Cc1ccc(C#Cc2cccc(-c3nn(-c4nc(C(=O)O)cs4)c(C4CC4C4CC4)c3Cc3ccc(S(N)(=O)=O)c(F)c3)c2)s1 (stereo not shown) [Compound 88, 2-(5-([1,1′-Bi(cyclopropan)]-2-yl)-4-(3-fluoro-4-sulfamoylbenzyl)-3-(3-((5-methylthiophen-2-yl)ethynyl)phenyl)-1H-pyrazol-1-yl)thiazole-4-carboxylic Acid] | 1.17 | 0.364 | 4.69 | 0.515 | 1.03 | –
20 | Cc1ccc(C#Cc2cccc(-c3nn(-c4nc(C(=O)O)cs4)c(C(C4CC4)C4CC4)c3Cc3ccc(S(N)(=O)=O)c(F)c3)c2)s1 [Compound 89, 2-(5-(Dicyclopropylmethyl)-4-(3-fluoro-4-sulfamoylbenzyl)-3-(3-((5-methylthiophen-2-yl)ethynyl)phenyl)-1H-pyrazol-1-yl)thiazole-4-carboxylic Acid] | 5.27 | 1.86 | 26.4 | 1.22 | 3.18 | –

Reference: publication PMC7830743 (Journal of medicinal chemistry, 2020)
